Laboratory results published in publication PMC7259601 (PLoS ONE, 2020).

Experiments:
[1] = tested on: FAD cofactor (in KDM1A or free); experiment: KDM1A binding analysis (FAD absorbance at 450 nm)
Experimental: Analysis of binding of inhibitors to KDM1A was as previously described [22](Yang et al., 2007) with minor modifications. The binding to FAD (present in the enzyme or free) was analyzed by measuring the decrease in absorbance at 450nm in a Tecan Infinite F200 microplate reader. Briefly, KDM1A enzyme was mixed with the inhibitor (without substrate) and the absorbance at 450nm was compared with the absorbance of the KDM1A enzyme without inhibitor. The reaction is monitored during 30 min and values used to calculate Kobs.
Absorbance at 450 nm was measured as described and Kobs was calculated following the equation: […]

SAMP8 mice [2] = experiment: Elevated Plus Maze (EPM), SAMP8; type: in vivo, mouse; conditions: 0.32 or 0.96 mg/kg/day
Experimental: Both male and female mice from the senescence accelerated strain SAMP8 and its control SAMR1 of different ages (see Table S3 for details) were used in these studies. Mice were breed in the animal facilities of the Pharmacy Faculty (University of Barcelona), maintained in a at 22 ± 2 °C controlled temperature in a 12 hr light / dark cycle (lights on at 8:00 am; 300 lux/0 lux) with ad libitum access to food (2018 TEKLAD, Harlan) and water. Male mice were housed individually (males) or in groups of 4-5 animals (females) in plastic colony boxes with a sawdust bedding material. […] SAMR1 mice treated with vehicle were included as a control. […] Drug concentration was calculated weekly in function of body weight and corrected in function of drinking water consumption. Cognitive function was evaluated by NORT, social behavior was evaluated by RI and anxiety and motor function were evaluated by EPM and OF. […]
(§1) The EPM consisted of four arms at right angles to each other connected to a central square and maintained elevated 50 cm above the floor. […] The animal was placed facing a closed arm, and its movements were video-recorded for 5 min and analyzed by video-tracking using SMART® (v3.0, PanLab, SLU, Spain).
(§2) Elevated Plus Maze (EPM): Movements were video-recorded for 5 min and analyzed by video-tracking using SMART® (v3.0, PanLab, SLU, Spain).

[3] = tested on: isolated Sprague-Dawley rats; experiment: Elevated Plus Maze, rat isolation rearing model; type: in vivo; conditions: 0.16 or 0.48 mg/kg/day in drinking water, approximately 1 month
Experimental: Sprague Dawley Rats: Right after the weaning (post natal day 21-23), 72 Sprague-Dawley male rats (Charles River, bred in the UAB Animal facility) were divided in two groups: Control (N = 18), maintained 3-4 animals per cage; Isolated (N = 54), 1 animal per cage ([…] 1291H Eurostandard type III with ECOPURE CHIPS 6 bedding material, Harlan). Animals were maintained at 21 ± 2 °C controlled temperature in a 12 hr light / dark cycle (lights on at 8:00 am) with ad libitum access to food (2014 TEKLAD, Harlan) and water. […] Control animals were treated with vehicle. The administration route was drinking water and the vehicle 1.8% 2-Hydroxypropyl-b-cyclodextrin. Drug concentration was adjusted weekly by body weight and water consumption. During the last week of treatment, all animals were tested in the EPM and, on a different day, in the RI test (N = 12 / group). […]
as §1, §2

SAMP8 mice [4] = experiment: Resident Intruder (RI) test, SAMP8; type: in vivo, mouse; conditions: 0.32 or 0.96 mg/kg/day for 5 weeks, male
Experimental: Both male and female mice from the senescence accelerated strain SAMP8 and its control SAMR1 of different ages (see Table S3 for details) were used in these studies. Mice were breed in the animal facilities of the Pharmacy Faculty (University of Barcelona), maintained in a at 22 ± 2 °C controlled temperature in a 12 hr light / dark cycle (lights on at 8:00 am; 300 lux/0 lux) with ad libitum access to food (2018 TEKLAD, Harlan) and water. Male mice were housed individually (males) or in groups of 4-5 animals (females) in plastic colony boxes with a sawdust bedding material. […] SAMR1 mice treated with vehicle were included as a control. All drugs were administered via drinking water and diluted in vehicle. Drug concentration was calculated weekly in function of body weight and corrected in function of drinking water consumption. Cognitive function was evaluated by NORT, social behavior was evaluated by RI and anxiety and motor function were evaluated by EPM and OF. When necessary, animals were deeply anesthetized (80 mg/kg sodium pentobarbital) and brain samples (hippocampus, (prefrontal) cortex) were micro-dissected and processed according to the downstream analysis.
The protocol was modified from previously described. Briefly, the test subject (resident) was maintained in its home cage without bedding changes for one week. […] In mice the session was video-recorded for 20 min and social interaction (social interaction and rearings) and aggressive behavior (lateral threats, clinch attacks, keep-down behavior) were analyzed. […] In rats the session was video recorded for 15 min and social interaction (active and passive social interaction, number of evitations and time without social interaction) were analyzed. […] In addition, the time spent without social interaction was also measured.
Resident Intruder (RI): Mice were video-recorded for 20 min and social interaction and aggressive behavior were analyzed. Rats were video recorded for 15 min and social interaction (active and passive social interaction, number of evitations and time without social interaction) were analyzed.

rats = experiment: Functional Observation Battery; type: in vivo; conditions: single dose of up to 100 mg/kg
[5] = tested on: AR (h) (agonist radioligand); experiment: CEREP Diversity Panel; type: binding, human; set-up: dose or concentration left out as unconfirmed
Experimental: (§3) […]. MAO-A inhibition at 10 μM was 37%, in line with internal data.

[6] = tested on: ER (non-selective) (h) (agonist radioligand); experiment: CEREP Diversity Panel; type: binding, human; set-up: dose or concentration left out as unconfirmed
Experimental: as §3

## Nc1nnc(CN[C@@H]2C[C@H]2c2ccc(OCc3ccccc3)cc2)o1 [ORY-2001, vafidemstat]
[1]
  binding to free FAD: does not bind free FAD
[1]; absorbance spectrum and MALDI-TOF
  mode of inhibition of KDM1A (FAD cofactor): covalent binding
SAMP8 mice [2]
  time in the open arms of the EPM: not significantly modified
[3]
  anxiety and locomotor activity in the EPM: did not produce any significant effect on anxiety or locomotor activity
SAMP8 mice [4]
  latency to attack: tendency to increase the latency to attack
  number of attacks and clinch attacks: lowered to SAMR1 levels
  time in social interactions and number of rearings: No significant strain- or treatment-differences
rats
  neurological alterations in the Functional Observation Battery: did not lead to neurological alterations
[5]
  % inhibition: -2%
[6]
  % inhibition: 13%
